Assay results from US20230263822A1, “MODULATION OF FACTOR 11 EXPRESSION” (Ionis Pharmaceuticals, Inc., priority 2008, published 2023).
Strand notation (5' to 3'): a small letter for the sugar, then the base; units joined by * are phosphorothioate-linked, units joined directly phosphodiester-linked; [ ] holds rarer units or linkages, { } end groups; capitals alone tell only the bases. e = 2'-O-(2-methoxyethyl) (MOE); [5mC] = 5-methylcytosine; d = 2'-deoxy (DNA)

What was measured:
[1] = Kidney function, BUN, urine protein to creatinine ratio in cynomolgus monkeys (Example 46); assay type: in vivo; details: for Urine protein/creatinine ratio: day 49
Procedure: Groups, each consisting of two male and two female monkeys, were injected subcutaneously with 25 mg/kg of ISIS 416850, ISIS 449709, ISIS 445522, ISIS 449710, ISIS 449707, ISIS 449711, ISIS 449708, 416858, and ISIS 445531. Antisense oligonucleotide was administered to the monkeys at 25 mg/kg three times per week for week 1 and 25 mg/kg twice per week for weeks 2 to 8. A control group, consisting of two male and two female monkeys was injected subcutaneously with PBS according to the same dosing regimen. Body weights were taken 14 days and 7 days before the start of treatment and were then measured weekly throughout the treatment period. Blood samples were collected 14 days and 5 days before the start of treatment and subsequently several times during the dosing regimen for PT and aPTT measurements, and measurement of various hematologic factors. On day 55, the monkeys were euthanized by exsanguination while under deep anesthesia, and organs harvested for further analysis.
To evaluate the impact of ISIS oligonucleotides on kidney function, urine samples were collected on different days. […] The ratio of urine protein to creatinine in urine samples after antisense oligonucleotide treatment was also calculated for day 49 and results are presented in Table 156. As observed in Tables 155 and 156, there were no significant increases in any of the kidney metabolic markers after antisense oligonucleotide treatment.

[2] = Tolerability in Sprague-Dawley rats: body weight and organ weight (Example 44); assay type: in vivo; details: 50 mg/kg s.c. twice per week for 6 weeks; for Change in Kidney weight / Change in Liver weight / Change in Spleen weight: end of study
[3] = Day −5 (before start of treatment)
[4] = Day −14 (before start of treatment)

## ISIS 449709: 3-8-3, 4-8-4, 2-10-2, 3-10-3 or 4-10-4 MOE microwalk gapmer (Table 46) (antisense eG*e[5mC]*eA*e[5mC]*dA*dG*dT*dT*dT*d[5mC]*dT*dG*dG*d[5mC]*eA*eG*eG*e[5mC])
[1]; Day 31
  BUN levels: 20 mg/dL
[1]; Day 55
  BUN levels: 28 mg/dL
[1]; [3]
  BUN levels: 21 mg/dL
[1]; [4]
  BUN levels: 22 mg/dL
[1]
  Urine protein/creatinine ratio: 0.05
[2]
  body weight: 376 g
  Change in Kidney weight: +19%
  Change in Liver weight: +8%
  Change in Spleen weight: +231%

## ISIS 449711: 3-8-3, 4-8-4, 2-10-2, 3-10-3 or 4-10-4 MOE microwalk gapmer (Table 46) (antisense eA*e[5mC]*dA*dG*dT*dT*dT*d[5mC]*dT*dG*dG*d[5mC]*eA*eG)
[1]; Day 31
  BUN levels: 20 mg/dL
[1]; Day 55
  BUN levels: 23 mg/dL
[1]; [3]
  BUN levels: 22 mg/dL
[1]; [4]
  BUN levels: 26 mg/dL
[1]
  Urine protein/creatinine ratio: 0.01
[2]
  body weight: 362 g
  Change in Kidney weight: +72%
  Change in Liver weight: +52%
  Change in Spleen weight: +327%

## ISIS 449707: 3-8-3, 4-8-4, 2-10-2, 3-10-3 or 4-10-4 MOE microwalk gapmer (Table 46) (antisense e[5mC]*eA*e[5mC]*eA*dG*dT*dT*dT*d[5mC]*dT*dG*dG*e[5mC]*eA*eG*eG)
[1]; Day 31
  BUN levels: 21 mg/dL
[1]; Day 55
  BUN levels: 20 mg/dL
[1]; [3]
  BUN levels: 21 mg/dL
[1]; [4]
  BUN levels: 25 mg/dL
[1]
  Urine protein/creatinine ratio: 0.03
[2]
  body weight: 352 g
  Change in Kidney weight: +80%
  Change in Liver weight: +41%
  Change in Spleen weight: +400%
